Experimental data published in PubChem BioAssay (NCI).
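Compound exposure: 48 hours, 5 concentrations, 96-well plates. TGI: concentration producing complete growth inhibition.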

Tests used:
Assay in all cases: DTP human tumour cell line panel, 48 h
DMS 273 small cell lung = test system: DMS 273 small cell lung
LOX IMVI melanoma = test system: LOX IMVI melanoma
HCT-116 colon = test system: HCT-116 colon
OVCAR-4 ovarian = test system: OVCAR-4 ovarian
RXF 393 renal = test system: RXF 393 renal
SK-OV-3 ovarian = test system: SK-OV-3 ovarian
NCI-H460 lung = test system: NCI-H460 lung
NCI-H23 lung = test system: NCI-H23 lung
CAKI-1 renal = test system: CAKI-1 renal
K-562 leukemia = test system: K-562 leukemia
DLD-1 colon = test system: DLD-1 colon
HL-60(TB) leukemia = test system: HL-60(TB) leukemia
SF-268 CNS = test system: SF-268 CNS
KM20L2 colon = test system: KM20L2 colon
786-0 renal = test system: 786-0 renal
SK-MEL-2 melanoma = test system: SK-MEL-2 melanoma
UO-31 renal = test system: UO-31 renal
RPMI-8226 leukemia = test system: RPMI-8226 leukemia
OVCAR-3 ovarian = test system: OVCAR-3 ovarian
EKVX NSCLC = test system: EKVX NSCLC
SW-620 colon = test system: SW-620 colon
HCT-15 colon = test system: HCT-15 colon
LXFL 529 NSCLC = test system: LXFL 529 NSCLC
UACC-257 melanoma = test system: UACC-257 melanoma
HOP-18 NSCLC = test system: HOP-18 NSCLC
DMS 114 small cell lung = test system: DMS 114 small cell lung
SNB-78 CNS = test system: SNB-78 CNS
M14 melanoma = test system: M14 melanoma
KM12 colon = test system: KM12 colon
SF-539 CNS = test system: SF-539 CNS
SNB-19 CNS = test system: SNB-19 CNS
HOP-92 NSCLC = test system: HOP-92 NSCLC
HCC-2998 colon = test system: HCC-2998 colon
COLO 205 colon = test system: COLO 205 colon
IGROV1 ovarian = test system: IGROV1 ovarian
OVCAR-5 ovarian = test system: OVCAR-5 ovarian
SK-MEL-28 melanoma = test system: SK-MEL-28 melanoma
CCRF-CEM leukemia = test system: CCRF-CEM leukemia
ACHN renal = test system: ACHN renal
SR leukemia = test system: SR leukemia
HT29 colon = test system: HT29 colon
NCI-H226 lung = test system: NCI-H226 lung
A498 renal = test system: A498 renal
TK-10 renal = test system: TK-10 renal
OVCAR-8 ovarian = test system: OVCAR-8 ovarian
SK-MEL-5 melanoma = test system: SK-MEL-5 melanoma
MALME-3M melanoma = test system: MALME-3M melanoma
HOP-62 NSCLC = test system: HOP-62 NSCLC
NCI-H522 lung = test system: NCI-H522 lung
U251 CNS = test system: U251 CNS
SF-295 CNS = test system: SF-295 CNS
SN12C renal = test system: SN12C renal
SNB-75 CNS = test system: SNB-75 CNS
A549 NSCLC = test system: A549 NSCLC
M19-MEL melanoma = test system: M19-MEL melanoma
UACC-62 melanoma = test system: UACC-62 melanoma
MOLT-4 leukemia = test system: MOLT-4 leukemia

## CCCCCCC(O)CC[C@H]1CCC[C@@H](C)N1 (some centres not stated)
DMS 273 small cell lung
  TGI: > 100 µM
LOX IMVI melanoma
  TGI: > 100 µM
HCT-116 colon
  TGI: > 100 µM
OVCAR-4 ovarian
  TGI: < 10 µM
RXF 393 renal
  TGI: > 100 µM
SK-OV-3 ovarian
  TGI: > 100 µM
NCI-H460 lung
  TGI: > 100 µM
NCI-H23 lung
  TGI: < 10 µM
CAKI-1 renal
  TGI: > 100 µM
K-562 leukemia
  TGI: > 100 µM
DLD-1 colon
  TGI: > 100 µM
HL-60(TB) leukemia
  TGI: > 100 µM
SF-268 CNS
  TGI: > 31.6 µM
KM20L2 colon
  TGI: < 10 µM
786-0 renal
  TGI: < 10 µM
SK-MEL-2 melanoma
  TGI: < 10 µM
UO-31 renal
  TGI: > 100 µM
RPMI-8226 leukemia
  TGI: > 100 µM
OVCAR-3 ovarian
  TGI: < 10 µM
EKVX NSCLC
  TGI: > 100 µM
SW-620 colon
  TGI: > 100 µM
HCT-15 colon
  TGI: > 31.6 µM
LXFL 529 NSCLC
  TGI: > 100 µM
UACC-257 melanoma
  TGI: < 10 µM
HOP-18 NSCLC
  TGI: > 100 µM
DMS 114 small cell lung
  TGI: > 31.6 µM
SNB-78 CNS
  TGI: > 100 µM
M14 melanoma
  TGI: > 100 µM
KM12 colon
  TGI: < 10 µM
SF-539 CNS
  TGI: > 100 µM
SNB-19 CNS
  TGI: < 10 µM
HOP-92 NSCLC
  TGI: > 100 µM
HCC-2998 colon
  TGI: > 100 µM
COLO 205 colon
  TGI: > 31.6 µM
IGROV1 ovarian
  TGI: > 100 µM
OVCAR-5 ovarian
  TGI: < 10 µM
SK-MEL-28 melanoma
  TGI: > 31.6 µM
CCRF-CEM leukemia
  TGI: > 100 µM
ACHN renal
  TGI: > 100 µM
SR leukemia
  TGI: > 100 µM
HT29 colon
  TGI: > 31.6 µM
NCI-H226 lung
  TGI: > 100 µM
A498 renal
  TGI: > 10 µM
TK-10 renal
  TGI: > 100 µM
OVCAR-8 ovarian
  TGI: < 10 µM
SK-MEL-5 melanoma
  TGI: > 100 µM
MALME-3M melanoma
  TGI: > 100 µM
HOP-62 NSCLC
  TGI: > 31.6 µM
NCI-H522 lung
  TGI: > 100 µM
U251 CNS
  TGI: > 31.6 µM
SF-295 CNS
  TGI: > 31.6 µM
SN12C renal
  TGI: > 100 µM
SNB-75 CNS
  TGI: > 31.6 µM
A549 NSCLC
  TGI: > 100 µM
M19-MEL melanoma
  TGI: > 31.6 µM
UACC-62 melanoma
  TGI: > 100 µM
MOLT-4 leukemia
  TGI: > 100 µM
